Reference: PubChem BioAssay AID248 (DTP/NCI, 2004)
Values joined by “and” are separate entries in the source; they are usually repeats but may differ in a detail not shown here. Equal values may be shown once. Inconclusive results and toxic doses are left out. Rule as the data show it: active = T/C of 150% or more; inactive = T/C below 125%.

Test system: L1210 leukemia ip in BDF1 mice, survival T/C
Test: NCI In Vivo Anticancer Drug Screen. Data for tumor model L1210 Leukemia (intraperitoneal) in B6D2F1 (BDF1) mice
Details: endpoint: mean survival time, higher = longer survival
Outline: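 Value reflects the ratio of survival in compound-treated mice to survival in vehicle-treated controls, with both groups carrying the same transplanted tumor.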

[1] = dose: 100.0 mg/kg/injection, schedule: Q04DX003 (ip), vehicle: Klucel (hydroxypropylcellulose) (HPC)
[2] = dose: 200.0 mg/kg/injection, schedule: Q04DX003 (ip), vehicle: Klucel (hydroxypropylcellulose) (HPC)
[3] = dose: 400.0 mg/kg/injection, schedule: Q04DX003 (ip), vehicle: Klucel (hydroxypropylcellulose) (HPC)
[4] = dose: 100.0 mg/kg/injection, schedule: Q01DX009 (ip), vehicle: saline
[5] = dose: 100.0 mg/kg/injection, schedule: Q04DX003 (ip), vehicle: saline
[6] = dose: 200.0 mg/kg/injection, schedule: Q01DX009 (ip), vehicle: saline
[7] = dose: 200.0 mg/kg/injection, schedule: Q04DX003 (ip), vehicle: saline
[8] = dose: 400.0 mg/kg/injection, schedule: Q01DX009 (ip), vehicle: saline
[9] = dose: 400.0 mg/kg/injection, schedule: Q04DX003 (ip), vehicle: saline
[10] = dose: 100.0 mg/kg/injection, schedule: Q01DX001 (ip), vehicle: other
[11] = dose: 200.0 mg/kg/injection, schedule: Q01DX001 (ip), vehicle: other
[12] = dose: 400.0 mg/kg/injection, schedule: Q01DX001 (ip), vehicle: other
[13] = dose: 25.0 mg/kg/injection, schedule: Q04DX003 (ip), vehicle: saline
[14] = dose: 50.0 mg/kg/injection, schedule: Q04DX003 (ip), vehicle: saline
[15] = dose: 50.0 mg/kg/injection, schedule: Q01DX009 (ip), vehicle: saline with Tween-80
[16] = dose: 100.0 mg/kg/injection, schedule: Q01DX009 (ip), vehicle: saline with Tween-80
[17] = dose: 100.0 mg/kg/injection, schedule: Q01DX009 (ip), vehicle: Klucel (hydroxypropylcellulose) (HPC)
[18] = dose: 200.0 mg/kg/injection, schedule: Q01DX009 (ip), vehicle: Klucel (hydroxypropylcellulose) (HPC)
[19] = dose: 400.0 mg/kg/injection, schedule: Q01DX009 (ip), vehicle: Klucel (hydroxypropylcellulose) (HPC)
[20] = dose: 100.0 mg/kg/injection, schedule: Q01DX001 (ip), vehicle: Klucel (hydroxypropylcellulose) (HPC)
[21] = dose: 200.0 mg/kg/injection, schedule: Q01DX001 (ip), vehicle: Klucel (hydroxypropylcellulose) (HPC)
[22] = dose: 400.0 mg/kg/injection, schedule: Q01DX001 (ip), vehicle: Klucel (hydroxypropylcellulose) (HPC)
[23] = dose: 100.0 mg/kg/injection, schedule: Q01DX001 (ip), vehicle: saline with Tween-80
[24] = dose: 200.0 mg/kg/injection, schedule: Q01DX001 (ip), vehicle: saline with Tween-80
[25] = dose: 400.0 mg/kg/injection, schedule: Q01DX001 (ip), vehicle: saline with Tween-80
[26] = dose: 100.0 mg/kg/injection, schedule: Q04DX003 (ip), vehicle: saline with Tween-80
[27] = dose: 200.0 mg/kg/injection, schedule: Q04DX003 (ip), vehicle: saline with Tween-80
[28] = dose: 400.0 mg/kg/injection, schedule: Q04DX003 (ip), vehicle: saline with Tween-80
[29] = dose: 200.0 mg/kg/injection, schedule: Q01DX009 (ip), vehicle: saline with Tween-80

Measured: T/C

NC(N)=N/N=C/c1ccccc1O
inactive: dose: 15.0 mg/kg/injection, schedule: Q01DX Z (ip), vehicle: saline 98 % of control and 91 % of control | dose: 31.0 mg/kg/injection, schedule: Q01DX Z (ip), vehicle: saline 87 % of control and 91 % of control | dose: 63.0 mg/kg/injection, schedule: Q01DX Z (ip), vehicle: saline 87 % of control | dose: 125.0 mg/kg/injection, schedule: Q01DX Z (ip), vehicle: saline 87 % of control

O=C(CN1CCCCC1)c1ccc2oc3ccccc3c2c1
inactive: [1] 96 % of control | [2] 96 % of control | [3] 87 % of control

CC(C)(CNc1ccc(C(=O)O)cc1)[N+](=O)[O-]
inactive: [4] 93 % of control | [5] 95 % of control | [6] 90 % of control | [7] 98 % of control | [8] 87 % of control | [9] 90 % of control

CC(C)CC(CC(C)C)OB(OC(CC(C)C)CC(C)C)OC(CC(C)C)CC(C)C
inactive: dose: 50.0 mg/kg/injection, schedule: Q01DX001 (ip), vehicle: other 96 % of control | [10] 96 % of control | [11] 96 % of control | [12] 90 % of control

CCOC(=O)C1(c2ccccc2)CCCNC1=O (stereo not drawn)
inactive: dose: 100.0 mg/kg/injection, schedule: Q04DX002 (ip), vehicle: saline 107 % of control | dose: 200.0 mg/kg/injection, schedule: Q04DX002 (ip), vehicle: saline 89 % of control | dose: 400.0 mg/kg/injection, schedule: Q04DX002 (ip), vehicle: saline 100 % of control

CNCC(O)c1ccc(O)cc1 (stereo not drawn)
inactive: dose: 25.0 mg/kg/injection, schedule: Q01DX009 (ip), vehicle: saline 96 % of control | [13] 111 % of control | dose: 50.0 mg/kg/injection, schedule: Q01DX009 (ip), vehicle: saline 105 % of control | [14] 101 % of control | [4] 98 % of control | [5] 90 % of control and 101 % of control | [6] 98 % of control | [7] 88 % of control and 104 % of control | [8] 100 % of control | [9] 98 % of control and 120 % of control

N#CC1C=CCC1 (stereo not drawn)
inactive: [15] 100 % of control | [16] 100 % of control

Cc1ccc(C)c(NC(=O)c2ccccc2N)c1
inactive: [17] 98 % of control | [1] 104 % of control | [18] 93 % of control | [2] 97 % of control | [19] 93 % of control | [3] 92 % of control

Oc1ccc2[nH]c3c(c2c1)C[P+](Cc1cccc2ccccc12)(c1ccccc1)CC3 (stereo not drawn)
inactive: [20] 98 % of control | [21] 93 % of control | [22] 96 % of control

Cc1ccnc(NC(c2ccccc2)c2ccc3cccnc3c2O)c1 (stereo not drawn)
inactive: dose: 100.0 mg/kg/injection, schedule: Q01DX001 (ip), vehicle: saline 103 % of control | dose: 200.0 mg/kg/injection, schedule: Q01DX001 (ip), vehicle: saline 95 % of control | dose: 400.0 mg/kg/injection, schedule: Q01DX001 (ip), vehicle: saline 86 % of control

O=C(C[n+]1cccc(CO)c1)c1ccccc1
inactive: dose: 12.5 mg/kg/injection, schedule: Q04DX003 (ip), vehicle: saline 102 % of control | [13] 103 % of control | [14] 100 % of control

CSc1nc(N)cc(NCc2ccccc2)n1
inactive: [23] 93 % of control | [24] 95 % of control | [25] 100 % of control

CN(C)CCCN=Cc1[nH]c(=S)[nH]c(=O)c1Cc1ccc(Cl)cc1
inactive: [23] 102 % of control | [24] 111 % of control | [25] 101 % of control

CN(C)CCCNc1c2ccccc2nc2cccc([N+](=O)[O-])c12
inactive: dose: 0.2 mg/kg/injection, schedule: Q04DX003 (ip), vehicle: saline 100 % of control | dose: 0.3 mg/kg/injection, schedule: Q04DX003 (ip), vehicle: saline 94 % of control | dose: 0.5 mg/kg/injection, schedule: Q04DX003 (ip), vehicle: saline 108 % of control

c1ccc2[nH]c(/N=N/c3nc4ccccc4[nH]3)nc2c1
inactive: [17] 95 % of control | [1] 94 % of control | [18] 105 % of control | [2] 98 % of control | [19] 87 % of control | [3] 98 % of control

Brc1ccccc1N=Nc1ccccc1Br
inactive: [26] 92 % of control | [27] 91 % of control | [28] 107 % of control

CC(=O)CCCCCCCCCCC1CCC2OC12 (stereo not drawn)
inactive: [10] 101 % of control | dose: 100.0 mg/kg/injection, schedule: Q01DX009 (sc), vehicle: other 109 % of control | dose: 100.0 mg/kg/injection, schedule: Q04DX003 (ip), vehicle: other 95 % of control | [11] 115 % of control | dose: 200.0 mg/kg/injection, schedule: Q01DX009 (sc), vehicle: other 98 % of control | dose: 200.0 mg/kg/injection, schedule: Q04DX003 (ip), vehicle: other 94 % of control | [12] 106 % of control | dose: 400.0 mg/kg/injection, schedule: Q01DX009 (sc), vehicle: other 97 % of control | dose: 400.0 mg/kg/injection, schedule: Q04DX003 (ip), vehicle: other 102 % of control

C/C(Cc1ccccc1)=N/N(C)C
inactive: [16] 113 % of control | [26] 102 % of control | [29] 104 % of control | [27] 95 % of control | [28] 95 % of control

COC12CC3C4=CCOC5CC(=O)N6c7ccccc7C1(CCN2C4)C6C53 (stereo not drawn)
inactive: dose: 5.0 mg/kg/injection, schedule: Q01DX001 (ip), vehicle: saline 97 % of control | dose: 10.0 mg/kg/injection, schedule: Q01DX001 (ip), vehicle: saline 97 % of control | dose: 20.0 mg/kg/injection, schedule: Q01DX001 (ip), vehicle: saline 101 % of control

O=C(O)c1ccccc1C(=O)OO
inactive: [15] 97 % of control | [16] 97 % of control | [29] 97 % of control

Cc1ccccc1N(C)C(=S)c1ccc(Cl)cc1
inactive: [20] 105 % of control | [1] 92 % of control | [21] 102 % of control | [2] 94 % of control | [22] 110 % of control | [3] 96 % of control

Cc1ccccc1Nc1cc(=O)[nH]c(N)n1
inactive: dose: 100.0 mg/kg/injection, schedule: Q01DX Z (ip), vehicle: methylcellulose (MC) 102 % of control | dose: 200.0 mg/kg/injection, schedule: Q01DX Z (ip), vehicle: methylcellulose (MC) 102 % of control
